Data published in patent publication US20090286738A1, “Gene Regulation” (ST. GEORGE'S ENTERPRISES LIMITED, priority 2005, published 2009).
Entries after “also recorded” stand apart in the source; their conditions may differ.

What was measured:
[1] = system: B16 murine melanoma cells; assay: Living and dead B16 cells after 3 hours (FIGS. 2A, 9); type: cell-based; conditions: B16 cells, FIGS. 2 and 3
Protocol: In FIG. 2A the peptides as indicated were applied to the cells at a concentration of 60 μM. The number of living and dead cells were assessed after 3 hours. Black bars=number of cells dead. White bars=number of cells alive.
(§1) The peptides as indicated were applied to the cells at a concentration of 60 μM (FIG. 6A) or 6 μM (FIG. 6B). In both experiments the HXArg9, CX1Arg9 and CX2Arg9 peptides used were the (2D) variant peptides in which the N- and C-terminal amino acids are in the D conformation and all remaining amino acids are in the L conformation. The number of living and dead cells were assessed after 3 hours. Black bars=% or number of cells dead. White bars=% or number of cells alive.
The HXArg9 peptide used was the (2D) variant peptide in which the N- and C-terminal amino acids are in the D conformation and all remaining amino acids are in the L conformation. HXArg9 was applied to the cells at a variety of concentrations (μM), and the number of dead and living cells was assessed after 3 hours. Black bars=% cells dead. White bars=% cells alive.
(§2) Cell lines were seeded at 4×10^4 cells/ml in liquid culture system made of RPMI-1640 medium (Life Technologies, UK) supplemented with Foetal Calf Serum (10% Sigma Aldrich) and penicillin/streptomycin (1%, Sigma) and at least in duplicate. When required the test peptide was added to the medium. Cell lines were cultured for up to 7 days at 37° C., 5% CO2 in humidified atmosphere. Cultured cells were then assessed for cell viability/enumeration using trypan blue exclusion (Sigma Aldrich).

[2] = Stability of peptides in human plasma at 37° C., SDS-PAGE; type: in vitro ADME; conditions: 1 mM peptide
Protocol: Peptides were incubated in human serum for the times shown and then visualised on a Coomassie brilliant blue stained gel. The arrow heads indicate the position of intact peptide. Standard=peptide only in this lane as a marker.
The stability of HXArg9(2D) and CX2Arg9(2D) was assessed by incubation each with human plasma at 37° C. and the amount of peptide remaining after different amounts of time was assessed by SDS-PAGE. Each peptide was added to freshly prepared human plasma to a final concentration of 1 mM in a total volume of 40 μl. Samples were incubated at 37° C. and reactions were stopped by adding 60 μl of water and 0.9 ml of protein gel loading buffer (BioRad, USA) containing 1% 2-mercaptoethanol, and heating to 95° C. for four minutes. 2 μl of each sample was run on a 22% acrylamide gel. […] This compared with a half life of approximately 40 minutes for the L isomer form HXArg9.

[3] = system: SK-OV3 (Human ovarian cancer); type: cell-based
Description: (§3) FIG. 5(a): MTT assays to determine the IC50 of the control and hexapeptide-containing peptides.
(§4) These include prostate (Miller, G. J. et al. Cancer Res. 63, 5879-5888 (2003)), renal (Cillo, C. et al. Int. J. Cancer. 51, 892-897 (1992)), bladder (Cantile, M., et al. Oncogene 22, 6462-6468 (2003)), lung (Abe, M. et al. Oncol. Rep. 15, 797-802 (2006)) and ovarian (Cheng, W., et al. Nat. Med. 11, 531-537 (2005)) cancer. In order to determine whether HXArg9 could also block the growth of cells derived from these cancers, we obtained the IC50 using an MTT assay for representative cell lines of each (Table 1).

[4] = system: J82 (Human bladder cancer); type: cell-based
Description: as §3, §4

[5] = system: LNCaP (Human prostate cancer); type: cell-based
Description: as §3, §4

[6] = system: A498 (Human renal cancer); type: cell-based
Description: as §3, §4

B16F10 (Mouse melanoma) = type: cell-based
Description: as §3, §4

[7] = system: A549 (Human non-small cell lung carcinoma); type: cell-based
Description: as §3, §4

B16 cells = assay: Apoptosis of B16 cells (microscopy, Hoechst, Annexin V FACS); type: cell-based, murine; conditions: in combination with HXArg9(2D)
Protocol: FIG. 5(b): Light micrographs of B16 cells treated with 60 μM HXArg9(2D) (HXR9) or CX2Arg9(2D) (CXR9) for two hours. Scale bar=40 μm.
FIG. 5(c) Transmission electron micrographs of B16 cells treated with 60 μM HXR9 or CXR9 for two hours. Scale bar=[…].
FIG. 5(d) FACS sorting of B16 cells with Annexin. Cells were treated as indicated above each plot. The lower left hand quadrant represents normal, viable cells. The bottom and top right hand quadrants represent cells in early and late apoptosis, respectively, and the top left hand quadrant represents cells in necrosis.
Apoptotic morphology was determined using scanning electron microscopy and fluorescence microscopy. Changes in nuclear morphology were assessed by fixing B-16 cytospins with ice-cold methanol at room temperature for five minutes. The fixed cells were stained with Hoechst 33258 (2 μg/ml) (Sigma) and mounted using VECTASHIELD® mounting medium (Vector) and analyzed by fluorescence microscopy (Nikon Eclipse TE 2000-S).
An additional sign of apoptosis is the appearance of phosphatidylserine in the cell membrane (Koopman, G. et al. Blood 84, 1415-1420 (1994)). This can be detected by fluorescencently labeled Annexin V protein and cell sorting using FACS.
This is a specific inhibitor of the caspase proteases, which are key components of the apotopic pathway (Zhu, H., et al. FEBS Lett. 374, 303-308 (1995)).

[8] = system: malignant cell lines (B16 mouse melanoma, LNCAP human prostate cancer, K562); conditions: time scale in which HXP4 shows an effect; cited from earlier work
[9] = system: malignant cell lines (B16 mouse melanoma, LNCAP human prostate cancer, K562); assay: Activity of peptides on different malignant cell lines, living and dead cells after 3 hours (FIGS. 6 to 8); type: cell-based; conditions: for effect on living/dead cells, cell proliferation: 60 μM or 6 μM, 3 hour exposures, melanoma, prostate cancer and leukaemia cells
Protocol: as §1
as §1, with “7A)” for “6A)”, “7B).” for “6B).”
as §1, with “μM. HXArg9(2D) is” for “μM (FIG. 6A) or 6 μM (FIG. 6B). In both experiments”, “variant form of HXArg9 in which the N-terminal and C-terminal amino acids are in the D conformation and the remaining amino acids are in the L conformation. HXArg9 consists of only L-conformation amino acids. The” for “HXArg9,”, “bars=%” for “bars=% or number of”
as §2
The activity of the peptides described above was tested on a number of different malignant cell lines using a similar assay to that described previously.

[10] = system: B16 murine melanoma cells; assay: B16 cell growth over a 4 day period (FIGS. 2B, 3); type: cell-based; conditions: 200 μg/ml for 4 hours, counted day 4
Protocol: In FIG. 2B the peptides as indicated were applied to the cells at a concentration of 200 μg/ml for 4 hours. The number of cells present was assessed on the day of treatment (white bars) and on day 4 (diagonal stripes).
A=untreated; B=CXP4; C=HXP4; D=HXP4(3D)2; E=HXP4(3D)3; F=HXP4(3D)4.
as §2

For WYPWMKKHHRQIKIWFQNRRMKWKK [HXP4(3D)1], the “activity of D-isomer variants of HXP4” value [1] was “slightly higher activity than the other 3D isomers”.
`CSCC[C@@H](N)C(=O)N[C@@H](CS)C(=O)N[C@@H](C)C(=O)N[C@@H](C)C(=O)NCC(=O)N[C@@H](CC(=O)O)C(=O)N[C@@H](CC(=O)O)C(=O)N[C@@H](C)C(=O)N[C@@H](CC(C)C)C(=O)N[C@@H](CCCNC(=N)N)C(=O)N[C@@H](CCCNC(=N)N)C(=O)N[C@@H](CCCNC(=N)N)C(=O)N[C@@H](CCCNC(=N)N)C(=O)N[C@@H](CCCNC(=N)N)C(=O)N[C@@H](CCCNC(=N)N)C(=O)N[C@@H](CCCNC(=N)N)C(=O)N[C@@H](CCCNC(=N)N)C(=O)N[C@H](CCCNC(=N)N)C(=O)O` [CX2Arg9(2D), MCAAGDDALRRRRRRRRR, reference compound] showed a half-life at 1 mM [2] of roughly 12 h, an IC50 [3] of 270 µM and an IC50 [4] of 290 µM. It also gave an IC50 [5] of 220 µM, an IC50 [6] of 280 µM and an IC50 (B16F10 (Mouse melanoma)) of 200 µM. It also gave an IC50 [7] of 240 µM.
In the case of Z-VAD, the “cell death / apoptosis on co-treatment with HXArg9(2D)” value (B16 cells) is reported as “significant reduction in cell death; also recorded: significant reduction in the number of cells undergoing apoptosis”.
For WCPWLDRHGRQIKIWFQNRRMKWKK [CXP4], the “effect in a similar assay, previously shown” value [8] is listed as “ineffective”.
For “MCAAGDDALRRRRRRRRR [CX2Arg9, more extensively changed version of the control peptide CX1Arg9, reference compound]”, the “effect on living/dead cells, cell proliferation” value (“effect on living/dead cells” for short) [9] was “no effect on cell proliferation”.
For `CSCC[C@H](NC(=O)[C@H](Cc1c[nH]c2ccccc12)NC(=O)[C@@H]1CCCN1C(=O)[C@H](Cc1ccc(O)cc1)NC(=O)[C@H](N)Cc1c[nH]c2ccccc12)C(=O)N[C@@H](CCCCN)C(=O)N[C@@H](CCCCN)C(=O)N[C@@H](Cc1c[nH]cn1)C(=O)N[C@@H](Cc1c[nH]cn1)C(=O)N[C@@H](CCCNC(=N)N)C(=O)N[C@@H](CCCNC(=N)N)C(=O)N[C@@H](CCCNC(=N)N)C(=O)N[C@@H](CCCNC(=N)N)C(=O)N[C@@H](CCCNC(=N)N)C(=O)N[C@@H](CCCNC(=N)N)C(=O)N[C@@H](CCCNC(=N)N)C(=O)N[C@@H](CCCNC(=N)N)C(=O)N[C@H](CCCNC(=N)N)C(=O)O` [HXArg9(2D), WYPWMKKHHRRRRRRRRR], the half-life at 1 mM [2] was roughly 12 h, the IC50 [3] was 22 µM and the IC50 [4] was 22 µM. For the same compound, the IC50 [5] was 21 µM, the IC50 [6] was 24 µM and the IC50 (B16F10 (Mouse melanoma)) was 20 µM. It also gave an IC50 [7] of 19 µM.
In the case of “WCPWLDRHGRRRRRRRRR [CX1Arg9, control peptide based on HXArg9 with amino acid substitutions]”, the “effect on living/dead cells” value [9] is reported as “some activity”.
For WYPWMKKHHRQIKIWFQNRRMKWKK [HXP4], the “effect on living/dead cells” value [9] was “no effect”, the “time required to achieve the same response” value ([9]; compared with 3 hour exposures for HXArg9) was 4 days and the “cell growth over a 4 day period” value [10] was “significantly reduced cell growth”.
